Data taken from US12077503B2, “Substituted cyclic amides and their use as herbicides” (FMC CORPORATION, priority 2015, dated 2024).

Experiments:
Type in all cases: in vivo
[1] = system: barnyardgrass (Echinochloa crus-galli); experiment: Test B flooded paddy test; settings: Flood, 250 g ai/ha; 0 to 100 scale where 0 is no effect and 100 is complete control; 13 to 15 d
Method in brief: (§1)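 Response scored visually against untreated controls, 0 = no effect and 100 = complete control, 13–15 d after treatment in the greenhouse. Compounds added to paddy water held 3 cm above soil surface. Treatment given at 2-leaf stage.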

[2] = system: ducksalad (Heteranthera limosa); experiment: Test B flooded paddy test; settings: Flood, 250 g ai/ha; 0 to 100 scale where 0 is no effect and 100 is complete control; 13 to 15 d
Method in brief: as §1

rice (Oryra sativa) = experiment: Test B flooded paddy test; settings: Flood, 250 g ai/ha; 0 to 100 scale where 0 is no effect and 100 is complete control; 13 to 15 d
Method in brief: as §1

[3] = system: sedge, umbrella (small-flower umbrella sedge, Cyperus difformis); experiment: Test B flooded paddy test; settings: Flood, 250 g ai/ha; 0 to 100 scale where 0 is no effect and 100 is complete control; 13 to 15 d
Method in brief: as §1

[4] = system: blackgrass (Alopecurus myosuroides); experiment: Test A postemergence; settings: for Blackgrass plant response rating: 125 g ai/ha, visual injury rating on 0 to 100 scale (0 no effect, 100 complete control), approx. 10 d; for Plant response rating, Blackgrass: 500 g ai/ha
Method in brief: (§2)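 Ratings of 0 (no effect) to 100 (complete control) come from visual comparison with untreated controls roughly 10 d after treatment. Test chemicals, formulated in a non-phytotoxic solvent mixture with surfactant, were applied either as a preemergence directed soil spray on seeded soil or postemergence to one- to two-leaf plants 2 to 10 cm tall.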

[5] = system: pigweed (Amaranthus retroflexus); experiment: Test A postemergence; settings: for Pigweed plant response rating: 125 g ai/ha, postemergence, visual injury rating on 0 to 100 scale (0 no effect, 100 complete control), approx. 10 d; for Plant response rating, Pigweed: Postemergence, 500 g ai/ha, 0 to 100 scale where 0 is no effect and 100 is complete control
Method in brief: as §2

[6] = system: wheat (Triticum aestivum); experiment: Test A postemergence; settings: for Wheat plant response rating: 125 g ai/ha, postemergence, visual injury rating on 0 to 100 scale (0 no effect, 100 complete control), approx. 10 d; for Plant response rating, Wheat: Postemergence, 500 g ai/ha, 0 to 100 scale where 0 is no effect and 100 is complete control
Method in brief: as §2

corn (Zea mays) = experiment: Test A postemergence; settings: for Corn plant response rating: 125 g ai/ha, visual injury rating on 0 to 100 scale (0 no effect, 100 complete control), approx. 10 d; for Plant response rating, Corn: 500 g ai/ha
Method in brief: as §2

Kochia (Kochia scoparia) [7] = experiment: Test A postemergence; settings: for Kochia plant response rating: 125 g ai/ha, postemergence, visual injury rating on 0 to 100 scale (0 no effect, 100 complete control), approx. 10 d; for Plant response rating, Kochia: Postemergence, 500 g ai/ha, 0 to 100 scale where 0 is no effect and 100 is complete control
Method in brief: as §2

[8] = system: barnyardgrass (Echinochloa crus-galli); experiment: Test A postemergence; settings: for Barnyardgrass plant response rating: 125 g ai/ha, visual injury rating on 0 to 100 scale (0 no effect, 100 complete control), approx. 10 d; for Plant response rating, Barnyardgrass: 500 g ai/ha
Method in brief: as §2

[9] = system: Galium (catchweed bedstraw, Galium aparine); experiment: Test A postemergence; settings: for Galium plant response rating: 125 g ai/ha, postemergence, visual injury rating on 0 to 100 scale (0 no effect, 100 complete control), approx. 10 d; for Plant response rating, Galium: Postemergence, 500 g ai/ha, 0 to 100 scale where 0 is no effect and 100 is complete control
Method in brief: as §2

[10] = system: ryegrass, Italian (Italian ryegrass, Lolium multiflorum); experiment: Test A postemergence; settings: for Ryegrass, Italian plant response rating: 125 g ai/ha, postemergence, visual injury rating on 0 to 100 scale (0 no effect, 100 complete control), approx. 10 d; for Plant response rating, Ryegrass, Italian: Postemergence, 500 g ai/ha, 0 to 100 scale where 0 is no effect and 100 is complete control
Method in brief: as §2

[11] = system: giant foxtail (Setaria faberii); experiment: Test A postemergence; settings: for Foxtail, Giant plant response rating: 125 g ai/ha, postemergence, visual injury rating on 0 to 100 scale (0 no effect, 100 complete control), approx. 10 d; for Plant response rating, Foxtail, Giant: Postemergence, 500 g ai/ha, 0 to 100 scale where 0 is no effect and 100 is complete control
Method in brief: as §2

[12] = system: ragweed (common ragweed, Ambrosia elatior); experiment: Test A postemergence; settings: for Ragweed plant response rating: 125 g ai/ha, postemergence, visual injury rating on 0 to 100 scale (0 no effect, 100 complete control), approx. 10 d; for Plant response rating, Ragweed: Postemergence, 500 g ai/ha, 0 to 100 scale where 0 is no effect and 100 is complete control
Method in brief: as §2

[13] = system: pigweed (Amaranthus retroflexus); experiment: Test A preemergence; settings: Preemergence; for Plant response rating, Pigweed: 125 g ai/ha, visual injury after approximately 10 d, 0 to 100 scale where 0 is no effect and 100 is complete control; for Pigweed plant response rating (0 to 100 scale, 0 is no effect, 100 is complete control): 500 g ai/ha, visual injury approx. 10 d
Kochia (Kochia scoparia) [14] = experiment: Test A preemergence; settings: for Plant response rating, Kochia: 125 g ai/ha; for Kochia plant response rating (0 to 100 scale, 0 is no effect, 100 is complete control): 500 g ai/ha, visual injury approx. 10 d
Method in brief: as §2

[15] = system: barnyardgrass (Echinochloa crus-galli); experiment: Test A preemergence; settings: for Plant response rating, Barnyardgrass: 125 g ai/ha; for Barnyardgrass plant response rating (0 to 100 scale, 0 is no effect, 100 is complete control): 500 g ai/ha, visual injury approx. 10 d
Method in brief: as §2

[16] = system: ryegrass, Italian (Italian ryegrass, Lolium multiflorum); experiment: Test A preemergence; settings: Preemergence; for Plant response rating, Ryegrass, Italian: 125 g ai/ha, visual injury after approximately 10 d, 0 to 100 scale where 0 is no effect and 100 is complete control; for Ryegrass, Italian plant response rating (0 to 100 scale, 0 is no effect, 100 is complete control): 500 g ai/ha, visual injury approx. 10 d
Method in brief: as §2

[17] = system: giant foxtail (Setaria faberii); experiment: Test A preemergence; settings: for Plant response rating, Foxtail, Giant: 125 g ai/ha; for Foxtail, Giant plant response rating (0 to 100 scale, 0 is no effect, 100 is complete control): 500 g ai/ha, visual injury approx. 10 d
Method in brief: as §2

[18] = system: ragweed (common ragweed, Ambrosia elatior); experiment: Test A preemergence; settings: Preemergence; for Plant response rating, Ragweed: 125 g ai/ha, visual injury after approximately 10 d, 0 to 100 scale where 0 is no effect and 100 is complete control; for Ragweed plant response rating (0 to 100 scale, 0 is no effect, 100 is complete control): 500 g ai/ha, visual injury approx. 10 d
Method in brief: as §2

[19] = postemergence, 0 to 100 scale, 0 no effect, 100 complete control
[20] = preemergence, 0 to 100 scale (0 no effect, 100 complete control)
[21] = Postemergence, 0 to 100 scale where 0 is no effect and 100 is complete control
[22] = Preemergence, visual injury after approximately 10 d, 0 to 100 scale where 0 is no effect and 100 is complete control

Structure (SMILES) | Plant response rating, Barnyardgrass [1] | Plant response rating, Ducksalad [2] | Plant response rating, Rice (rice (Oryra sativa)) | Plant response rating, Sedge, Umbrella [3] | Blackgrass plant response rating ([4]; postemergence) | Pigweed plant response rating [5] | Plant response rating, Pigweed [5] | Wheat plant response rating [6] | Plant response rating, Wheat [6] | Corn plant response rating (corn (Zea mays); postemergence) | Kochia plant response rating (Kochia (Kochia scoparia) [7]) | Plant response rating, Kochia (Kochia (Kochia scoparia) [7]) | Barnyardgrass plant response rating ([8]; postemergence) | Galium plant response rating [9] | Plant response rating, Galium [9] | Ryegrass, Italian plant response rating [10] | Plant response rating, Ryegrass, Italian [10] | Foxtail, Giant plant response rating [11] | Plant response rating, Foxtail, Giant [11] | Ragweed plant response rating [12] | also measured
CC(C)=CCN1CC(c2cccc(C(F)(F)F)c2)C(C(=O)Nc2ccccc2F)C1=O (stereo not drawn) [Compound 478] | 0 | 0 | 0 | 0 | 0 | 0 | 0 | 0 | 20 | 0 | 0 | 0 | 30 | 0 | 0 | 0 | 20 | 20 | 60 | 0 | Plant response rating, Blackgrass [4, 19]: 20; Plant response rating, Corn (corn (Zea mays); [19]): 0; Plant response rating, Barnyardgrass [8, 19]: 60; Plant response rating, Ragweed [12]: 0; Plant response rating, Pigweed [13]: 0; Pigweed plant response rating (0 to 100 scale, 0 is no effect, 100 is complete control) [13]: 0; Plant response rating, Kochia (Kochia (Kochia scoparia) [14]; [20]): 0; Kochia plant response rating (0 to 100 scale, 0 is no effect, 100 is complete control) (Kochia (Kochia scoparia) [14]; Preemergence): 0; Plant response rating, Barnyardgrass [15, 20]: 20; Barnyardgrass plant response rating (0 to 100 scale, 0 is no effect, 100 is complete control) ([15]; Preemergence): 60; Plant response rating, Ryegrass, Italian [16]: 0; Ryegrass, Italian plant response rating (0 to 100 scale, 0 is no effect, 100 is complete control) [16]: 0; Plant response rating, Foxtail, Giant [17, 20]: 70; Foxtail, Giant plant response rating (0 to 100 scale, 0 is no effect, 100 is complete control) ([17]; Preemergence): 80; Plant response rating, Ragweed [18]: 0; Ragweed plant response rating (0 to 100 scale, 0 is no effect, 100 is complete control) [18]: 0
C=C(C)CN1CC(c2cccc(C(F)(F)F)c2)C(C(=O)Nc2cccc(F)c2F)C1=O (stereo not drawn) [Compound 479] | 0 | 20 | 0 | 0 | 0 | 0 | 0 | 0 | 40 | 0 | 0 | 0 | 0 | 0 | 0 | 0 | 0 | 0 | 60 | 0 | Plant response rating, Blackgrass [4, 19]: 40; Plant response rating, Corn (corn (Zea mays); [19]): 0; Plant response rating, Barnyardgrass [8, 19]: 50; Plant response rating, Ragweed [12]: 0; Plant response rating, Pigweed [13]: 0; Pigweed plant response rating (0 to 100 scale, 0 is no effect, 100 is complete control) [13]: 0; Plant response rating, Kochia (Kochia (Kochia scoparia) [14]; [20]): 0; Kochia plant response rating (0 to 100 scale, 0 is no effect, 100 is complete control) (Kochia (Kochia scoparia) [14]; Preemergence): 0; Plant response rating, Barnyardgrass [15, 20]: 0; Barnyardgrass plant response rating (0 to 100 scale, 0 is no effect, 100 is complete control) ([15]; Preemergence): 30; Plant response rating, Ryegrass, Italian [16]: 0; Ryegrass, Italian plant response rating (0 to 100 scale, 0 is no effect, 100 is complete control) [16]: 0; Plant response rating, Foxtail, Giant [17, 20]: 80; Foxtail, Giant plant response rating (0 to 100 scale, 0 is no effect, 100 is complete control) ([17]; Preemergence): 90; Plant response rating, Ragweed [18]: 0; Ragweed plant response rating (0 to 100 scale, 0 is no effect, 100 is complete control) [18]: 0
C=C(C)CN1CC(c2cccc(C(F)(F)F)c2)C(C(=O)Nc2ccccc2F)C1=O (stereo not drawn) [Compound 481] | 0 | 0 | 0 | 0 | 0 | 0 | 0 | 0 | 20 | 0 | 0 | 0 | 0 | 0 | 0 | 0 | 0 | 0 | 20 | 0 | Plant response rating, Blackgrass [4, 21]: 0; Plant response rating, Corn (corn (Zea mays); [21]): 0; Plant response rating, Barnyardgrass [8, 21]: 20; Plant response rating, Ragweed [12]: 0; Plant response rating, Pigweed [13]: 0; Pigweed plant response rating (0 to 100 scale, 0 is no effect, 100 is complete control) [13]: 0; Plant response rating, Kochia (Kochia (Kochia scoparia) [14]; [22]): 0; Kochia plant response rating (0 to 100 scale, 0 is no effect, 100 is complete control) (Kochia (Kochia scoparia) [14]; Preemergence): 0; Plant response rating, Barnyardgrass [15, 22]: 0; Barnyardgrass plant response rating (0 to 100 scale, 0 is no effect, 100 is complete control) ([15]; Preemergence): 10; Plant response rating, Ryegrass, Italian [16]: 0; Ryegrass, Italian plant response rating (0 to 100 scale, 0 is no effect, 100 is complete control) [16]: 0; Plant response rating, Foxtail, Giant [17, 22]: 50; Foxtail, Giant plant response rating (0 to 100 scale, 0 is no effect, 100 is complete control) ([17]; Preemergence): 90; Plant response rating, Ragweed [18]: 0; Ragweed plant response rating (0 to 100 scale, 0 is no effect, 100 is complete control) [18]: 0
